This is an account of results in patent US6607906B1, “Heterologous G protein coupled receptors expressed in yeast, their fusion with G proteins and use thereof in bioassay” (priority 1994, dated 2003).

Where two headings read alike, the source gives them in different places. Residues, ends and D or L forms follow the SMILES beside them.

For assay [1], the target named is rat SSTR2 somatostatin receptor subtype (rat) (UniProt P30680). In words: radioligand binding with Gpp(NH)p (100 µM), crude membranes of yeast strain CY624 (SSTR2 with Gαi2).
Chain of rat SSTR2 somatostatin receptor subtype (rat) (P30680 whole entry): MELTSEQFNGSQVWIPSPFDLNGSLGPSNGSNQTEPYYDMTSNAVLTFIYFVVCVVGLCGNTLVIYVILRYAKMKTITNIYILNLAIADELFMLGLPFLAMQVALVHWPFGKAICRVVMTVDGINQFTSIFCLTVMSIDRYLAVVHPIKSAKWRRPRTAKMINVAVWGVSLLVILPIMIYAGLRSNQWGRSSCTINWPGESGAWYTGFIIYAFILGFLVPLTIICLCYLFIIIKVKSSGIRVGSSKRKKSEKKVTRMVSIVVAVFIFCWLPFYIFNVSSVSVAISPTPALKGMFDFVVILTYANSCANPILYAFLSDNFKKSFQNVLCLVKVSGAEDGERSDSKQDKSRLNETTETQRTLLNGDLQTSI
For assay [2] the target is unchanged. In words: maximal radioligand binding, crude membranes of yeast strain CY603 (SSTR2 with Scg1).
Assay [3] has the same target. In words: maximal radioligand binding, crude membranes of yeast strain CY624 (SSTR2 with Gαi2).
The target is the same in assay [4]. In words: maximal radioligand binding, crude membranes of yeast strain CY602 (SSTR2 with Gαs).
Assay [5] concerns the target porcine SSTR2 expressed from plasmid pJH17 (porcine) (UniProt P34994). In words: saturation radioligand binding, crude membranes of yeast cells bearing pJH17.
For assay [6], the target named is rat SSTR2 somatostatin receptor subtype (rat) (UniProt P30680). In words: radioligand binding with Gpp(NH)p (100 µM), crude membranes of yeast strain CY603 (SSTR2 with Scg1).
Assay [7] has the same target. Description: saturation radioligand binding, membranes of yeast coexpressing SSTR2 and Scg1/Gαi2.
For assay [8] the target is unchanged. Description: radioligand binding with Gpp(NH)p (100 µM), crude membranes of yeast strain CY602 (SSTR2 with Gαs).
In assay [9] the target is T1, human GRF receptor (Homo sapiens, UniProt Q02643).
T1 construct: expressed in transfected cells; host or cells: Saccharomyces cerevisiae CY990 (LY296 with pJH25 and pLP122 Gpa1-Gαs)
T1 sequence (Q02643 23-423): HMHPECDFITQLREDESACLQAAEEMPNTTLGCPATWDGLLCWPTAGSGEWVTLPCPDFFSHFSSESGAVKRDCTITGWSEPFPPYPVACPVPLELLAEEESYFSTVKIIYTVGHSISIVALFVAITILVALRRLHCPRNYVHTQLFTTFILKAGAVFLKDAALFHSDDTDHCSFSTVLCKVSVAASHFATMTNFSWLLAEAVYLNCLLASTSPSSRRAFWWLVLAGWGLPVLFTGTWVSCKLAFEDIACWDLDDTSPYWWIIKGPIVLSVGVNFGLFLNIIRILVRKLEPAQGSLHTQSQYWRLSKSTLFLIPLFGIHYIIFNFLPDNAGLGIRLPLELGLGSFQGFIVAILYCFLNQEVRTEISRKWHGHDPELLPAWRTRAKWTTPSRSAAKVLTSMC
Description: Agar plate growth bioassay, yeast expressing GRF receptor (CY990). The class given is cell-based.

In assay [10] the test system is porcine SSTR2. Description: Agar plate growth bioassay, yeast expressing porcine SSTR2 (LY474). The format is cell-based.
The target of assay [11] is T2, rat CCKB receptor (Rattus norvegicus, UniProt P30553).
T2 construct: expressed in transfected cells; host or cells: Saccharomyces cerevisiae LY296 derivatives LY631 (Gpa1-Gαs chimera, pLP122) and LY628 (Gpa1-Gαi2 chimera, pLP121)
T2 sequence (P30553 1-452): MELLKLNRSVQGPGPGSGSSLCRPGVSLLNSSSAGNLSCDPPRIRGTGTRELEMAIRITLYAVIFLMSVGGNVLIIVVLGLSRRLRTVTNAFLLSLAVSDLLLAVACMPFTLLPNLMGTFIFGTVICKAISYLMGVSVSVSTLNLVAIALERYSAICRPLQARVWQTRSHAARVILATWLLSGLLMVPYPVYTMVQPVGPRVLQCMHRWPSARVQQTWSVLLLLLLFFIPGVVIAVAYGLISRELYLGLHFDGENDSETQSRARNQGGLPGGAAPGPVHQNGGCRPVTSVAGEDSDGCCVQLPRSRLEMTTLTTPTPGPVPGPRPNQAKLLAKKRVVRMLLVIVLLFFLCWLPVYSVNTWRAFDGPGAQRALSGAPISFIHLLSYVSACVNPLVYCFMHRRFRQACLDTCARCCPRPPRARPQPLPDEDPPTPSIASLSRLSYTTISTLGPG
In words: Agar plate growth bioassay, yeast expressing CCKB receptor (LY628, LY631). The format is cell-based.

Assay [12] addresses T3, rat SSTR5 (Rattus norvegicus, UniProt P30938).
T3 construct: expressed in transfected cells; host or cells: Saccharomyces cerevisiae LY620 (LY296 with pJH19 and pLP121 Gpa1-Gαi2)
T3 sequence (P30938 1-363): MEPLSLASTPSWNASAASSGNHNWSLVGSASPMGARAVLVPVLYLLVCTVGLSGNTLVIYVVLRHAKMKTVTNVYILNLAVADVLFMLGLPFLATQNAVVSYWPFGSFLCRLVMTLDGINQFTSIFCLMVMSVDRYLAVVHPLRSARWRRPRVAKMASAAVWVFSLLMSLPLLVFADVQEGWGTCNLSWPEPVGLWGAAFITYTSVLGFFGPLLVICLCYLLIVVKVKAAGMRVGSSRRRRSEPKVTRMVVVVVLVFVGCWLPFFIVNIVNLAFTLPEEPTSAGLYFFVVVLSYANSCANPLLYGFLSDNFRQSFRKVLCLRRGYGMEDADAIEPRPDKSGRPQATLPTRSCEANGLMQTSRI
In words: Agar plate growth bioassay, yeast expressing SSTR5 (LY620). The class given is cell-based.

Assay [13] has as its target human GRF receptor (human) (UniProt Q02643). In words: cell-based or functional assay.
The target of assay [14] is T4, rat SSTR2 somatostatin receptor subtype (Rattus norvegicus, UniProt P30680).
T4 construct: expressed in transfected cells; host or cells: Saccharomyces cerevisiae YPH500 derivatives CY624 (Gαi2), CY602 (Gαs), CY603 (Scg1); crude membranes
T4 sequence (P30680 with tags, fused parts or gaps limits assumed): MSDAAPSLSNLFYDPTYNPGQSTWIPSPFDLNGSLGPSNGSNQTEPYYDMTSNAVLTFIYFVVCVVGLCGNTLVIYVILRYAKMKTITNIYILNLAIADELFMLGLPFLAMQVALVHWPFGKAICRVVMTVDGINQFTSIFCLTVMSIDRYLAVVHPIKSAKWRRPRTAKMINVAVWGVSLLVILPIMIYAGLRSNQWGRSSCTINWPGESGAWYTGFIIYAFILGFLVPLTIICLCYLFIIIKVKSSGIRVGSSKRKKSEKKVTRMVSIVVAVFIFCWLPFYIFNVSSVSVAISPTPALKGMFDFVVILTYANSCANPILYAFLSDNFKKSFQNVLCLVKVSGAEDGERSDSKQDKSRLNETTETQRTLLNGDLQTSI
In words: Binding of radiolabeled somatostatin 14 to membranes of yeast expressing SSTR2. The following applies: for percent radioligand bound compared to untreated samples, +Gpp(NH)p: Gpp(NH)p 100 μM.

Assay [15] concerns the target T5, human 5HTla receptor (Homo sapiens, UniProt P08908).
T5 construct: first 14 amino acids of yeast Ste2 (N); expressed in transfected cells; host or cells: Saccharomyces cerevisiae strain CY382 (plasmid pCHI11), membrane fractions
T5 sequence (P08908 with tags, fused parts or gaps): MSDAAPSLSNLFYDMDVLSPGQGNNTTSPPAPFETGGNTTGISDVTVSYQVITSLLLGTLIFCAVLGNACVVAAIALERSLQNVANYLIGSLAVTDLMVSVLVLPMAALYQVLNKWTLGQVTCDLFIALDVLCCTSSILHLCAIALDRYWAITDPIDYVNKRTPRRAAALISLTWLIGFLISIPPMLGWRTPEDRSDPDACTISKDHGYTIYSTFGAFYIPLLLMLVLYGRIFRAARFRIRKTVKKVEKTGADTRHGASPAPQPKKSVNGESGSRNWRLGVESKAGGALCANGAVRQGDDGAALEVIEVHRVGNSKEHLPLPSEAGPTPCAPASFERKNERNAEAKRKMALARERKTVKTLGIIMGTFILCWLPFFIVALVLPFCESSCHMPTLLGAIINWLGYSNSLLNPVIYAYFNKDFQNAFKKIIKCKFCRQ
Description: Saturation binding of 3H-spiperone to yeast membrane fractions (strain CY382, pCHI11).

Assay [16] concerns the target rat SSTR2 (Rattus norvegicus, UniProt P30680). The class given is cell-based.
Assay [17] deals with T2, rat CCKB receptor. In words: Radiolabeled agonist saturation binding of 3H-CCK-8, yeast membranes (LY631). The settings on record: GppNHp 100 μM, LY631 crude membranes.
Description: Ligand-binding to the rat CCKBreceptor expressed in yeast. Crude membrane fractions from overnight liquid cultures of LY631 cells were prepared, and agonist saturation binding assays conducted as described in Methods and Materials. Saturation binding was performed with 4-60 nM[^3H]
Radiolabeled agonist saturation binding assays. Crude yeast membrane extracts from late log phase cultures were prepared by glass-bead lysis and centrifugation at 40,000 xg following a published procedure (13). […] Non-specific binding was defined as that observed in the presence of 1 μM CCK-4.
Assay [18] has as its target rat CCKB receptor (rat) (UniProt P30553). Description: cell-based or functional assay.
Where [19] appears, read: LY628 and LY631 cells, 30° C., 3 days.

Chain of rat SSTR2 (P30680 whole entry): as the sequence (P30680 whole entry) above

As for “[^125I-tyr^11]-somatostatin 14 (from UniProt P61278 103-116) (peptide)”, the values for the percent radioligand bound with Gpp(NH)p compared to untreated samples in [1], in assay [6] and in assay [8] were 22%, 4% and 0%, respectively. In addition, the figures for the Bmax (fmol/mg total protein) in [2], in assay [3] and in assay [4] were 24.7, 94.5 and 13.7, respectively. The Bmax in assay [5] is 146 fmol/mg. Besides, the Kd (as a rule, the equilibrium constant for the complex coming apart) in assay [7] amounted to 0.5 nM.
Consider `CC(C)NCC(O)c1ccc(O)c(O)c1` (centres unmarked) [isoproterenol], for which the growth response entry is “not observed” in [9] (CY990 cells, 3 days); “not observed” in [10] (LY474 cells, 3 days); “not observed” in assay [11] (setting [19]); “not observed” in assay [12] (LY620 cells, 3 days).
The compound “hGRF (1-29)-NH2 (from UniProt P01286 32-60) (peptide)” came in with an amount giving a detectable growth response, strain CY990 in assay [13] of 20 nmol.
As for `C[C@H](N)C(=O)NCC(=O)N[C@H]1CSSC[C@@H](C(=O)O)NC(=O)[C@H](CO)NC(=O)[C@H]([C@@H](C)O)NC(=O)[C@H](Cc2ccc(O)c(I)c2)NC(=O)[C@H]([C@@H](C)O)NC(=O)[C@H](CCCCN)NC(=O)[C@H](Cc2c[nH]c3ccccc23)NC(=O)[C@H](Cc2ccccc2)NC(=O)[C@H](Cc2ccccc2)NC(=O)[C@H](CC(N)=O)NC(=O)[C@H](CCCCN)NC1=O` [[^125I]tyr^11S-14] (HELM PEPTIDE1{A.G.C.K.N.F.F.W.K.T.[O=C([C@H](Cc1ccc(O)c(I)c1)N[*:1])[*:2]].T.S.C}$PEPTIDE1,PEPTIDE1,3:R3-14:R3$$$V2.0; N-terminus and C-terminus assumed; bridges inferred), the Bmax in assay [14] (strain CY602, Gαs) stood at 13.7 fmol/mg total protein; in assay [14] (strain CY603, Scgl) it was 24.7 fmol/mg total protein; in assay [14] (strain CY624, Gαi), 94.5 fmol/mg total protein. Further, the Kd in assay [14] (yeast coexpressing Scgl/Gαi2, read-out: calculated Kd) was 0.5 nM.
With `O=C(CCCN1CCC2(CC1)C(=O)NCN2c1ccccc1)c1ccc(F)cc1` [^3H-spiperone, spiperone], the Bmax in assay [15] (saturation binding, strain CY382) is recorded as 3.2 pmol/mg protein; in [15] (strain carrying pCHI11), 3.1 pmol/mg.
As for “met-enkephalin: an opiate receptor agonist”, the growth response result in assay [9], in assay [10], in assay [11] and in assay [12] was “not observed” throughout. In addition, the “growth response (halo) around disks” value in [16] was “No detectable response”.
Regarding `Nc1nc2c(ncn2[C@@H]2O[C@H](COP(=O)(O)OP(=O)(O)NP(=O)(O)O)[C@@H](O)[C@H]2O)c(=O)[nH]1` [Gpp (NH) p], the “percent radioligand bound compared to untreated samples, +Gpp(NH)p” value in assay [14] (strain CY602, Gαs) came to 0%; in assay [14] (strain CY603, Scgl), 4%; in [14] (strain CY624, Gαi) it was 22%. For the same compound, the “decrease of specific binding of 3H-CCK-8” value in assay [17] is “greater than 50%”.
As for CCK-4: cholecystokinin, in assay [11], the “amount giving a detectable response” value was 10 µg and the “diameter of the growth zones, rank order” value is given as “CCK-8>gastrin>CCK-4”. In addition, in assay [11] (setting [19]), the growth response entry is given as “dose-dependent growth response”.
Compound “CCK-4 (from UniProt P06307 100-103) (peptide)” showed an amount giving a detectable growth response in assay [18] of 10 µg.
For the compound `C[N+](C)(C)CCOC(N)=O` [carbachol], the growth response result in assay [9] (CY990 cells, 3 days) was “not observed”; in [10] (LY474 cells, 3 days), “not observed”; in assay [11] (setting [19]), “not observed”; in [12] (LY620 cells, 3 days), “not observed”.
For “hGRF (1-29)-NH2: an agonist analog of GRF”, the “amount giving a detectable response” value in assay [9] amounted to 20 nmol. In addition, the growth response result in assay [9] (CY990 cells, 3 days) is “dose-dependent growth response”.
As to `Cc1cc(C(C)(C)C)c(O)c(C)c1CC1=NCCN1` [oxymetazoline], the growth response entry in assay [9] (CY990 cells, 3 days) is “not observed”; in [10] (LY474 cells, 3 days) it was “not observed”; in [11] (setting [19]), “not observed”; in [12] (LY620 cells, 3 days) it was “not observed”.
In the case of sandostatin, in [10], the “diameter of the growth zones, rank order” value is “S-14=MK678>sandostatin” and the growth response entry is listed as “dose-dependent growth response”.
